Among the data in patent publication US20240208992A1, “MACROCYCLES AS CFTR MODULATORS” (Idorsia Pharmaceuticals Ltd, priority 2021, published 2024) are EC50 and Emax values, retold here.

This assay deals with human F508del-CFTR (Homo sapiens, UniProt P13569, DEL508-508). The assay can be described thus: F508del-CFTR cell surface expression (corrector activity), DiscoveRx ß-galactosidase complementation chemiluminescence assay in recombinant U2OS cell line.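 For all read-outs here: U2OS cells co-expressing ProLink-tagged F508del-CFTR and a membrane-anchored enzyme acceptor, where more surface CFTR restores β-galactosidase activity measured by chemiluminescence.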 The note with it: for EC50: EC50, F508del-CFTR cell surface expression, U2OS cells, 16h compound incubation, geomean values; for Emax: U2OS, in relation to Emax of corrector lumacaftor (=100%), arithmetic mean values.
human F508del-CFTR, sequence (P13569 with tags, fused parts or gaps DEL508-508): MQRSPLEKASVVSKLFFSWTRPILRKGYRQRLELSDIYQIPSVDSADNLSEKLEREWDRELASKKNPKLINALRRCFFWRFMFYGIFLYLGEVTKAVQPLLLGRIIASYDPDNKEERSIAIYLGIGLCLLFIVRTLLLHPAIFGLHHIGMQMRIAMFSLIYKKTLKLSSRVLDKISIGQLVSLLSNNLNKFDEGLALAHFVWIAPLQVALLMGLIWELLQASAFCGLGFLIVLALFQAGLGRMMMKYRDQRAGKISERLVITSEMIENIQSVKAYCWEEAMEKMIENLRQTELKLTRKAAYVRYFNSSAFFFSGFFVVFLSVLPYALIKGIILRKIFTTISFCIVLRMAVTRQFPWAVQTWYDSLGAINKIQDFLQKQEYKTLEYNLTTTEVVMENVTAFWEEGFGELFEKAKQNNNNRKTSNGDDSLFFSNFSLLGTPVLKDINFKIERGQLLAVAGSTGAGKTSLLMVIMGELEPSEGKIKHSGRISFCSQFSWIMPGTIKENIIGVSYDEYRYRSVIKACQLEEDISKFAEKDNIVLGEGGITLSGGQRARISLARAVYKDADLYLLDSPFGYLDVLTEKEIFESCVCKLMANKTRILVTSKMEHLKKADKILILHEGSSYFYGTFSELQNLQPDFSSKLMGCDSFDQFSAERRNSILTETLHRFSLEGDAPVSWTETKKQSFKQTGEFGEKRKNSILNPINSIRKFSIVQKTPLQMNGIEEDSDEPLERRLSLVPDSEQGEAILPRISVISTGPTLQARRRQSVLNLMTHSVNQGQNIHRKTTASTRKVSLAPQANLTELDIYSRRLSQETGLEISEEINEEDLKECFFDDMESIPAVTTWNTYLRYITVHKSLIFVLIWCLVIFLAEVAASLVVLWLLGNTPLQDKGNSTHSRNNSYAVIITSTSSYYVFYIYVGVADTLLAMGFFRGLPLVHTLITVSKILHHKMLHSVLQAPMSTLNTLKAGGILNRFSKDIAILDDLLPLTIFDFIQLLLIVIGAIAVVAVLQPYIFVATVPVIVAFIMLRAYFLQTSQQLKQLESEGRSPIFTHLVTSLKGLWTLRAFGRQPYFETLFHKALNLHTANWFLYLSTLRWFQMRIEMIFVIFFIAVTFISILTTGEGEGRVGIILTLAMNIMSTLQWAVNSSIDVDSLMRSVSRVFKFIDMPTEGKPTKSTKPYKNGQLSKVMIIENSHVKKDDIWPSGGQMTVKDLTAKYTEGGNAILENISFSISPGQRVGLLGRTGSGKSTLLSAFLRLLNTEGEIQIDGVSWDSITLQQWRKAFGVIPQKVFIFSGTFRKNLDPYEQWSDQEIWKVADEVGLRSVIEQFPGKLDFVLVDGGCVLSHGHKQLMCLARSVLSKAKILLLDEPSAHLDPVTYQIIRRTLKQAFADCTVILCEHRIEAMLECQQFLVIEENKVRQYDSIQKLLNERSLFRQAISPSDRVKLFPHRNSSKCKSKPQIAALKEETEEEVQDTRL

In general, EC50 refers to the midpoint of the concentration-response curve. As a reminder, the Emax is the maximal effect, on the per cent scale that the assay sets. With `COCCS(=O)(=O)N1CCN2C(=O)[C@H](CC(C)C)N(C)C(=O)C[C@@H](C(=O)NCCc3cccc(OC)c3)NC(=O)c3c(ccc4ccccc34)OC[C@@H](Cc3ccccc3)NC(=O)[C@H]2C1` [Example 733, (4aR,7R,18S,22S)-7-benzyl-22-isobutyl-3-((2-methoxyethyl)sulfonyl)-N-(3-methoxyphenethyl)-21-methyl-5,16,20,23-tetraoxo-2,3,4,4a,5,6,7,8,16,17,18,19,20,21,22,23-hexadecahydro-1H-naphtho[1,2-p]pyrazino[2,1-f][1]oxa[4,7,10,14]tetraazacycloheptadecine-18-carboxamide], the 50% effective concentration (EC50) was found to be 349 nM and the maximal response (Emax) amounted to 235%.
In the case of `COc1cccc(CCNC(=O)[C@@H]2CC(=O)N(C)[C@@H](CC(C)C)C(=O)N3CCN(S(=O)(=O)C4CCOCC4)C[C@@H]3C(=O)N[C@H](Cc3ccccc3)COc3ccc4ccccc4c3C(=O)N2)c1` [Example 734, (4aR,7R,18S,22S)-7-benzyl-22-isobutyl-N-(3-methoxyphenethyl)-21-methyl-5,16,20,23-tetraoxo-3-((tetrahydro-2H-pyran-4-yl)sulfonyl)-2,3,4,4a,5,6,7,8,16,17,18,19,20,21,22,23-hexadecahydro-1H-naphtho[1,2-p]pyrazino[2,1-f][1]oxa[4,7,10,14]tetraazacycloheptadecine-18-carboxamide], the EC50 was determined as 299 nM and the Emax was found to be 325%.
The like results for `COc1cccc(CCNC(=O)[C@@H]2CC(=O)N(C)[C@@H](CC(C)C)C(=O)N3CCN(S(=O)(=O)CCN(C)C)C[C@@H]3C(=O)N[C@H](Cc3ccccc3)COc3ccc4ccccc4c3C(=O)N2)c1` [Example 735, (4aR,7R,18S,22S)-7-benzyl-3-((2-(dimethylamino)ethyl)sulfonyl)-22-isobutyl-N-(3-methoxyphenethyl)-21-methyl-5,16,20,23-tetraoxo-2,3,4,4a,5,6,7,8,16,17,18,19,20,21,22,23-hexadecahydro-1H-naphtho[1,2-p]pyrazino[2,1-f][1]oxa[4,7,10,14]tetraazacycloheptadecine-18-carboxamide] were, in that order, 314 nM and 176%.
The like results for `COc1cccc(CCNC(=O)[C@@H]2CC(=O)N(C)[C@@H](CC(C)C)C(=O)N3CCN(S(=O)(=O)Cc4ccccc4)C[C@@H]3C(=O)N[C@H](Cc3ccccc3)COc3ccc4ccccc4c3C(=O)N2)c1` [Example 736, (4aR,7R,18S,22S)-7-benzyl-3-(benzylsulfonyl)-22-isobutyl-N-(3-methoxyphenethyl)-21-methyl-5,16,20,23-tetraoxo-2,3,4,4a,5,6,7,8,16,17,18,19,20,21,22,23-hexadecahydro-1H-naphtho[1,2-p]pyrazino[2,1-f][1]oxa[4,7,10,14]tetraazacycloheptadecine-18-carboxamide] were, in that order, 153 nM and 286%.
Turning to `COc1cccc(CCNC(=O)[C@@H]2CC(=O)N(C)[C@@H](CC(C)C)C(=O)N3CCN(S(=O)(=O)c4ccc5oc(=O)[nH]c5c4)C[C@@H]3C(=O)N[C@H](Cc3ccccc3)COc3ccc4ccccc4c3C(=O)N2)c1` [Example 737, (4aR,7R,18S,22S)-7-benzyl-22-isobutyl-N-(3-methoxyphenethyl)-21-methyl-5,16,20,23-tetraoxo-3-((2-oxo-2,3-dihydrobenzo[d]oxazol-5-yl)sulfonyl)-2,3,4,4a,5,6,7,8,16,17,18,19,20,21,22,23-hexadecahydro-1H-naphtho[1,2-p]pyrazino[2,1-f][1]oxa[4,7,10,14]tetraazacycloheptadecine-18-carboxamide], the 50% effective concentration (EC50) was found to be 665 nM and the Emax is 298%.
In the same order, the values of `COc1cccc(CCNC(=O)[C@@H]2CC(=O)N(C)[C@@H](CC(C)C)C(=O)N3CCN(S(=O)(=O)Cc4cccc5cccnc45)C[C@@H]3C(=O)N[C@H](Cc3ccccc3)COc3ccc4ccccc4c3C(=O)N2)c1` [Example 738, (4aR,7R,18S,22S)-7-benzyl-22-isobutyl-N-(3-methoxyphenethyl)-21-methyl-5,16,20,23-tetraoxo-3-((quinolin-8-ylmethyl)sulfonyl)-2,3,4,4a,5,6,7,8,16,17,18,19,20,21,22,23-hexadecahydro-1H-naphtho[1,2-p]pyrazino[2,1-f][1]oxa[4,7,10,14]tetraazacycloheptadecine-18-carboxamide] are 110 nM and 256%.
The like results for `COc1cccc(CCNC(=O)[C@@H]2CC(=O)N(C)[C@@H](CC(C)C)C(=O)N3CCN(S(=O)(=O)c4cccc(OC)c4)C[C@@H]3C(=O)N[C@H](Cc3ccccc3)COc3ccc4ccccc4c3C(=O)N2)c1` [Example 739, (4aR,7R,18S,22S)-7-benzyl-22-isobutyl-N-(3-methoxyphenethyl)-3-((3-methoxyphenyl)sulfonyl)-21-methyl-5,16,20,23-tetraoxo-2,3,4,4a,5,6,7,8,16,17,18,19,20,21,22,23-hexadecahydro-1H-naphtho[1,2-p]pyrazino[2,1-f][1]oxa[4,7,10,14]tetraazacycloheptadecine-18-carboxamide] were, in that order, 101 nM and 297%.
In the same order, the values of `COc1cccc(CCNC(=O)[C@@H]2CC(=O)N(C)[C@@H](CC(C)C)C(=O)N3CCN(S(=O)(=O)c4cc(OC)ccc4F)C[C@@H]3C(=O)N[C@H](Cc3ccccc3)COc3ccc4ccccc4c3C(=O)N2)c1` [Example 740, (4aR,7R,18S,22S)-7-benzyl-3-((2-fluoro-5-methoxyphenyl)sulfonyl)-22-isobutyl-N-(3-methoxyphenethyl)-21-methyl-5,16,20,23-tetraoxo-2,3,4,4a,5,6,7,8,16,17,18,19,20,21,22,23-hexadecahydro-1H-naphtho[1,2-p]pyrazino[2,1-f][1]oxa[4,7,10,14]tetraazacycloheptadecine-18-carboxamide] are 111 nM and 280%.
As for `COc1cccc(CCNC(=O)[C@@H]2CC(=O)N(C)[C@@H](CC(C)C)C(=O)N3CCN(S(=O)(=O)c4ccc5c(c4)OCCN5C)C[C@@H]3C(=O)N[C@H](Cc3ccccc3)COc3ccc4ccccc4c3C(=O)N2)c1` [Example 741, (4aR,7R,18S,22S)-7-benzyl-22-isobutyl-N-(3-methoxyphenethyl)-21-methyl-3-((4-methyl-3,4-dihydro-2H-benzo[b][1,4]oxazin-7-yl)sulfonyl)-5,16,20,23-tetraoxo-2,3,4,4a,5,6,7,8,16,17,18,19,20,21,22,23-hexadecahydro-1H-naphtho[1,2-p]pyrazino[2,1-f][1]oxa[4,7,10,14]tetraazacycloheptadecine-18-carboxamide], the EC50 is 116 nM and the maximal response (Emax) stood at 294%.
The like results for `COc1cccc(CCNC(=O)[C@@H]2CC(=O)N(C)[C@@H](CC(C)C)C(=O)N3CCN(S(=O)(=O)c4cccnc4)C[C@@H]3C(=O)N[C@H](Cc3ccccc3)COc3ccc4ccccc4c3C(=O)N2)c1` [Example 742, (4aR,7R,18S,22S)-7-benzyl-22-isobutyl-N-(3-methoxyphenethyl)-21-methyl-5,16,20,23-tetraoxo-3-(pyridin-3-ylsulfonyl)-2,3,4,4a,5,6,7,8,16,17,18,19,20,21,22,23-hexadecahydro-1H-naphtho[1,2-p]pyrazino[2,1-f][1]oxa[4,7,10,14]tetraazacycloheptadecine-18-carboxamide] were, in that order, 214 nM and 246%.
In the same order, the values of `COCCCS(=O)(=O)N1CCN2C(=O)[C@H](CC(C)C)N(C)C(=O)C[C@@H](C(=O)NCCc3cccc(OC)c3)NC(=O)c3c(ccc4ccccc34)OC[C@@H](Cc3ccccc3)NC(=O)[C@H]2C1` [Example 743, (4aR,7R,18S,22S)-7-benzyl-22-isobutyl-N-(3-methoxyphenethyl)-3-((3-methoxypropyl)sulfonyl)-21-methyl-5,16,20,23-tetraoxo-2,3,4,4a,5,6,7,8,16,17,18,19,20,21,22,23-hexadecahydro-1H-naphtho[1,2-p]pyrazino[2,1-f][1]oxa[4,7,10,14]tetraazacycloheptadecine-18-carboxamide] are 207 nM and 217%.
In the case of `COc1cccc(CCNC(=O)[C@@H]2CC(=O)N(C)[C@@H](CC(C)C)C(=O)N3CCN(S(=O)(=O)c4cncc(OC)c4)C[C@@H]3C(=O)N[C@H](Cc3ccccc3)COc3ccc4ccccc4c3C(=O)N2)c1` [Example 744, (4aR,7R,18S,22S)-7-benzyl-22-isobutyl-N-(3-methoxyphenethyl)-3-((5-methoxypyridin-3-yl)sulfonyl)-21-methyl-5,16,20,23-tetraoxo-2,3,4,4a,5,6,7,8,16,17,18,19,20,21,22,23-hexadecahydro-1H-naphtho[1,2-p]pyrazino[2,1-f][1]oxa[4,7,10,14]tetraazacycloheptadecine-18-carboxamide], the concentration for a half-maximal effect (EC50) turned out to be 178 nM and the Emax stood at 239%.
In the same order, the values of `COc1cccc(CCNC(=O)[C@@H]2CC(=O)N(C)[C@@H](CC(C)C)C(=O)N3CCN(S(=O)(=O)CCN4CCOCC4)C[C@@H]3C(=O)N[C@H](Cc3ccccc3)COc3ccc4ccccc4c3C(=O)N2)c1` [Example 745, (4aR,7R,18S,22S)-7-benzyl-22-isobutyl-N-(3-methoxyphenethyl)-21-methyl-3-((2-morpholinoethyl)sulfonyl)-5,16,20,23-tetraoxo-2,3,4,4a,5,6,7,8,16,17,18,19,20,21,22,23-hexadecahydro-1H-naphtho[1,2-p]pyrazino[2,1-f][1]oxa[4,7,10,14]tetraazacycloheptadecine-18-carboxamide] are 693 nM and 206%.
On to `COc1cccc(CCNC(=O)[C@@H]2CC(=O)N(C)[C@@H](CC(C)C)C(=O)N3CCN(S(=O)(=O)CC4CCOCC4)C[C@@H]3C(=O)N[C@H](Cc3ccccc3)COc3ccc4ccccc4c3C(=O)N2)c1` [Example 746, (4aR,7R,18S,22S)-7-benzyl-22-isobutyl-N-(3-methoxyphenethyl)-21-methyl-5,16,20,23-tetraoxo-3-(((tetrahydro-2H-pyran-4-yl)methyl)sulfonyl)-2,3,4,4a,5,6,7,8,16,17,18,19,20,21,22,23-hexadecahydro-1H-naphtho[1,2-p]pyrazino[2,1-f][1]oxa[4,7,10,14]tetraazacycloheptadecine-18-carboxamide], for which the EC50 was determined as 211 nM and the maximal response (Emax) was found to be 213%.
